Data on five molecules can be found in article PMC4472782, “Antibacterial Characterization of Novel Synthetic Thiazole Compounds against Methicillin-Resistant Staphylococcus pseudintermedius” (PLoS ONE, 2015).

In brackets after ≈: the same amount, converted by molar mass. Where a name gives a salt, the structure may show the parent alone. Read-outs that look alike come from different tables or passages of the source.

The conditions of data set [1]: human liver microsomes; cited from earlier work. (Liver microsomes are a subcellular fraction often used to study metabolism.)
The subject of data set [2] is murine macrophage cell line (J774.A1). As to the kind of experiment: In vitro cytotoxicity analysis (MTS assay). The format is cell-based. The conditions noted are these: 10 μg/mL, J774.A1, two hours. How it is done:
Compounds were assayed at concentrations of 5 μg/mL, 10 μg/mL, 20 μg/mL, and 40 μg/mL against a murine macrophage cell line (J774.A1) (ATCC TIB-67, American Type Culture Collection (ATCC), Manassas, VA, USA) to determine the potential toxic effect in vitro. Cells were cultured in Dulbeco’s modified Eagle’s medium (Sigma-Aldrich, St. Louis, MO, USA) with 10% fetal bovine serum (USA Scientific, Inc.) at 37°C with 5% CO2. Controls received DMSO alone at a concentration equal to that in drug-treated cell samples. The cells were incubated with the compounds in a 96-well plate at 37°C and 5.0% CO2 for two hours prior to addition of the assay reagent MTS 3-(4,5-dimethylthiazol-2-yl)-5-(3-carboxymethoxyphenyl)-2-(4-sulfophenyl)-2H-tetrazolium) (Promega, Madison, WI, USA). Absorbance readings were taken using a kinetic ELISA microplate reader (Molecular Devices, Sunnyvale, CA, USA). The quantity of viable cells after treatment with each compound was expressed as a percentage of the control, DMSO.
(§1) All statistical analyses were performed with GraphPad Prism 6.0 (GraphPad Software, La Jolla, CA). Data generated from cytotoxicity analysis of the thiazole compounds against J774.A1 cells and the 260 and 280 nm cell leakage analysis were analyzed using one-way ANOVA, with post hoc Tukey's multiple comparisons test (P < 0.05).

Data set [3] concerns MRSP SP3. Description: Post-antibiotic effect against MRSP. It is filed as cell-based, Staphylococcus pseudintermedius. The conditions noted are these: 4 × MIC for one hour. How it is done:
A tube containing untreated bacterial cells served as a control. Afterward, the compound/antibiotic was washed out by diluting bacteria 1:1000 in MHB. Counts of CFU for all cultures were obtained after washing. Aliquots (100 μL) of bacteria were removed every hour (for 10 hours), serially diluted in PBS, and plated on TSA plates. TSA plates were incubated for 20 hours at 37°C before CFU values were determined.

The test system of data set [4] is methicillin-sensitive Staphylococcus pseudintermedius. As to the kind of experiment: MBC determination against MSSP clinical isolates. It is filed as cell-based. The settings on record: nine MSSP isolates; for MBC: Staphylococcus pseudintermedius, lowest concentration that killed 50% of isolates, read-out: MBC50. How it is done:
(§2) The MBC was determined by plating 5 μL from wells on the 96-well microtiter plate (where the MIC was determined) where no growth was observed onto Tryptic soy agar (TSA) plates. […] The MBC was categorized as the concentration where ≥99% reduction in bacterial cell count was observed.

Data set [5] relates to methicillin-resistant Staphylococcus pseudintermedius. As to the kind of experiment: MIC by broth microdilution against MRSP clinical isolates. It is filed as cell-based. The conditions noted are these: six MRSP isolates, triplicate; for MIC50: Staphylococcus pseudintermedius, read-out: MIC50. How it is done:
(§3) Fifteen isolates of S. pseudintermedius (nine MSSP and six MRSP), identified at the Indiana Animal Disease Diagnostic Laboratory from specimens collected from dogs admitted to the small animal teaching hospital at Purdue University, were included in the study. The specimens were not collected specifically for this research study but were obtained from patients admitted to the hospital for treatment. Clinical specimens were inoculated onto 5% sheep blood agar and incubated at 35°C for 18–24 hours. Standard methods including examination of colony morphology and hemolysis and biochemical tests such as tube coagulase, Voges-Proskauer (VP) and fermentation tests for maltose, trehalose and lactose, were used in addition to matrix-assisted laser desorption ionization time of flight mass spectrometry to identify isolates. Antimicrobial susceptibility was determined by broth microdilution using the SensiTitre (Thermofisher Scientific).
(§4) Bacteria were prepared in phosphate-buffered saline (PBS) until a McFarland standard of 0.5 was achieved. The solution was subsequently diluted 1:300 in Mueller-Hinton broth (MHB) to reach a starting inoculum of 1 × 10^5 colony-forming units (CFU/mL). Bacteria were then transferred to a 96-well microtiter plate. Thiazole compounds and antibiotics were added (in triplicate) to wells in the first row of the microtiter plate and then serially diluted along the vertical axis. […] The MIC was categorized as the concentration where there was no visible growth of bacteria observed.

Data set [6] has the same test system. Description: MBC determination against MRSP clinical isolates. The format is cell-based. The conditions noted are these: six MRSP isolates; for MBC: Staphylococcus pseudintermedius, read-out: MBC50. How it is done:
as §2

Data set [7] concerns MRSP SP3. Description: Time-kill analysis against MRSP. It is filed as cell-based, Staphylococcus pseudintermedius. The settings on record: 4 × MIC, MRSP SP3, 24 hour incubation at 37°C. How it is done:
MRSP SP3 cells in late logarithmic growth phase were diluted to ~1 × 10^6 CFU/mL and exposed to concentrations equivalent to 4 × MIC (in triplicate) of thiazole compounds 1–6 and rifampicin in MHB. Samples (20 μL) were collected after 0, 2, 4, 6, 8, 10, 12, and 24 hours of incubation at 37°C and subsequently serially diluted in PBS. Bacteria were then transferred to TSA plates and incubated at 37°C for 20–24 hours before viable CFU/mL values were determined.

For data set [8], the system named is methicillin-sensitive Staphylococcus pseudintermedius. Description: MIC by broth microdilution against MSSP clinical isolates. The conditions noted are these: nine MSSP isolates, triplicate; for MIC50: lowest concentration inhibiting growth in 50% of isolates; for MIC: read-out: MIC Range. It is filed as cell-based. How it is done: as §3, §4
For orientation: Dilution methods test growth across graded concentrations, often in twofold steps.

Data set [9] concerns MRSP SP3. Description: Checkerboard assay of thiazole compounds with oxacillin. It is filed as cell-based, Staphylococcus pseudintermedius. The conditions noted are these: for ƩFIC: combination with oxacillin, ≤ 0.5 synergistic, > 0.5 to ≤ 4.0 indifference, > 4 antagonistic. How it is done: The relationship between the thiazole compounds and oxacillin was assessed via a standard checkerboard assay. Bacteria (MRSP SP3) equivalent to a McFarland standard of 0.5 were prepared in PBS. The bacteria were next diluted in MHB to achieve a starting cell density of 1 × 10^5 CFU/mL. MHB was transferred to all wells of a 96-well microtiter plate. […] Oxacillin was serially diluted along the abscissa of the microtiter plate while the thiazole compound was serially diluted along the ordinate. The plate was incubated for 22–24 hours at 37°C. The MIC of the test compound in combination with oxacillin was determined as the lowest concentration of each compound/antibiotic where no visible growth of bacteria was observed. The fractional inhibitory concentration index (ƩFIC) was calculated for each combination as described previously. A synergistic relationship was classified as an FIC index less than or equal to 0.5. […]

Details of data set [10]: method as in PMID 24387054. The settings on record: phosphate-buffered saline; cited from earlier work.
For data set [11], the system named is MRSP SP3. Description: Cell membrane disruption (260/280 nm cell leakage) analysis. It is filed as cell-based, Staphylococcus pseudintermedius. The conditions noted are these: for absorbance (260 and 280 nm leakage) compared with untreated cells, statistical result: MRSP SP3, 30 minutes, one-way ANOVA, Tukey, P ≤ 0.05. How it is done:
In order to investigate the antimicrobial effect of the thiazole compounds on the integrity of the bacterial cell membrane, the release of 260 and 280 nm absorbing components was determined spectrophotometrically. […] Untreated MRSP SP3 cells or cells treated with vancomycin (inhibits cell wall synthesis in bacterial cells) served as negative controls. For the release of 260 and 280 nm absorbing material, the bacterial suspension (control) was treated with lysostaphin (in 50 mM Tris-HCl, pH 8.00) for 30 minutes. Lysostaphin was used as a positive control due to its mode of action being the disruption of the cross-linking of the pentaglycin bridges in the cell wall of staphylococci bacteria. The absorbance of cell supernatant at 260 and 280 nm was determined using a spectrophotometer (Jenway 6305). The average OD260 and OD280 values of duplicates of each treatment option were calculated and expressed as the proportion of average OD260 (or OD280) for each treatment option compared to the average OD260 (or OD280) for the positive control (lysostaphin).
as §1

Data set [12] can be described thus: Kinetic (turbidimetric) solubility in PBS. It is filed as physicochemical. The conditions noted are these: phosphate-buffered saline; highest concentration with no precipitate. How it is done:
The absorbance of the PBS-containing plate was measured prior to addition of the test agents to determine the background absorbance. After 2 hours, the presence of precipitate was detected by turbidity (absorbance at 540 nm).

Data set [13] has as its system MRSP SP3. Description: Re-sensitization of MRSP to oxacillin, broth microdilution. It is filed as cell-based. The conditions noted are these: Staphylococcus pseudintermedius, clinical isolate identified as MRSP, read-out: MIC of oxacillin alone. How it is done: MHB was inoculated with MRSP SP3 (5×10^5 CFU/mL), as has been previously described. Aliquots (5 mL) of the bacterial suspension were divided into microcentrifuge tubes. The thiazole compounds tested (at ½ × MIC) were introduced into each tube. After sitting at room temperature for 30 minutes, 1 mL samples from each tube were transferred to a new centrifuge tube prior to addition of oxacillin (at a concentration equivalent to its MIC). Using a 96-well microtiter plate, rows 2–12 were filled with the remaining 4 mL bacterial suspension (containing the thiazole compound). Aliquots (200 μL) from tubes containing both the thiazole compound and oxacillin were transferred to row 1 of the 96-well plate. After aspirating contents in the first row 4–6 times, 100 μL was transferred from wells in row 1 to row 2. This process was repeated to dilute the remaining wells containing no antibiotic. Untreated bacteria served as a control. […] A fold reduction was calculated by comparing the MIC of the antibiotic alone compared to the MIC of the antibiotic given in combination with the thiazole compounds.

As usually defined, the MIC50 is an inhibitory concentration at the 50% level, which refers to growth in some studies and to a panel of isolates in others. Broadly, the MIC is the lowest concentration that inhibits growth of the organism. As to `CCCCc1ccc(-c2nc(C)c(/C(C)=N/NC(=N)N)s2)cc1` [Compound 1], in data set [1], the half-life entry was “under 30 minutes”. Besides, the “toxicity to murine macrophage cells (MTS assay)” value in data set [2] was “toxic”. For the same molecule, the “Post-antibiotic Effect” value in data set [3] is greater than 9 h. Moreover, in data set [4], the MBC was determined as 0.46 µg/mL (≈ 1.4 µM) and the “MBC Range” value lay in the range of 0.17 to 2.77 µg/mL. In data set [5], the MIC50 came to 0.69 µg/mL (≈ 2.09 µM) and the “MIC Range” value was in the range of 0.35 to 1.38 µg/mL. Besides, in [6], the MBC was found to be 0.92 µg/mL (≈ 2.79 µM) and the “MBC Range” value was in the range of 0.35 to 1.38 µg/mL. The “time required to completely eliminate MRSP” value in data set [7] was “four hours”. For the same molecule, in data set [8], the MIC50 was 0.35 µg/mL (≈ 1.06 µM) and the MIC lay in the range of 0.17 to 1.38 µg/mL (≈ 0.516 to 4.19 µM). Besides, in data set [9] (checkerboard assay), the relationship with oxacillin result is given as “synergistic”. Further, the ƩFIC in data set [9] turned out to be 0.19. Moreover, the solubility limit in [10] is 20.56 µg/mL (≈ 62.4 µM).

As to `C/C(=N\NC(=N)N)c1sc(-c2ccc(-c3ccccc3)cc2)nc1C` [Compound 2], the “toxicity to murine macrophage cells (MTS assay)” value in data set [2] is recorded as “toxic”. Also, the “Post-antibiotic Effect” value in data set [3] worked out at 8 h. In [4], the MBC came out at 0.61 µg/mL (≈ 1.75 µM) and the “MBC Range” value lay within 0.15 to 2.42 µg/mL. Moreover, in data set [5], the MIC50 was found to be 0.46 µg/mL (≈ 1.32 µM) and the “MIC Range” value was 0.15 to 0.61 µg/mL. The “intracellular content (at 260 nm) released compared to cells treated with lysostaphin” value in data set [11] (4 × MIC, 30 minutes, MRSP SP3) was “Less than 20%”. Besides, the “absorbance (260 and 280 nm leakage) compared with untreated cells, statistical result” value in data set [11] is “no statistical difference”. Besides, in data set [6], the MBC is 0.61 µg/mL (≈ 1.75 µM) and the “MBC Range” value fell in the range of 0.30 to 0.81 µg/mL. Besides, the “time required to completely eliminate MRSP” value in data set [7] is on record as “eight hours”. Besides, in data set [8], the MIC50 came out at 0.3 µg/mL (≈ 0.858 µM) and the MIC was in the range of 0.15 to 0.61 µg/mL (≈ 0.429 to 1.75 µM). Also, in [9], the ƩFIC was 0.56.

Regarding `COC(=O)[C@H]1[C@H]2C[C@@H]3c4[nH]c5cc(OC)ccc5c4CCN3C[C@H]2C[C@@H](OC(=O)c2cc(OC)c(OC)c(OC)c2)[C@@H]1OC` [Reserpine, reference compound], the “solubility limit” value in data set [12] was determined as 19.05 µg/mL (≈ 31.3 µM).

With `Cc1onc(-c2ccccc2)c1C(=O)N[C@@H]1C(=O)N2[C@@H]1SC(C)(C)[C@@H]2C(=O)O` [oxacillin, oxacillin sodium salt monohydrate], the minimal inhibitory concentration (MIC) in data set [13] came to 128 µg/mL.

For the molecule “lysostaphin: positive control; disrupts cross-linking of the pentaglycin bridges in the cell wall of staphylococci [reference compound]”, in data set [11], the “absorbance (260 and 280 nm leakage) compared with untreated cells, statistical result” value was “significant difference”.
